# Data as given in patent publication US20140366441A1, “VEGETATIVE PROPAGATION OF SOYBEAN PLANTS IN A HYDROPONIC ENVIRONMENT” (Bayer Cropscience LP, priority 2012, published 2014).
# Columns and labels:
# Soybean shoot cuttings = assay: Root development of soybean shoot cuttings in tissue culture boxes with fertilizer solution and NAA; type: in vivo; conditions: higher NAA concentrations (10^-8 M, 10^-7 M, 10^-6 M tested); nine days; FIG. 3
# Procedure: Three NAA concentrations at 10^-8 M, 10^-7 M and 10^-6 M with 5 cm, 10 cm and 15 cm long shoots were tested in replicate. Soybean shoot cuttings were taken from plants recovered from tissue culture. Tissue culture boxes (Vitro […]) were used to hold the solutions, and the lids with a 2.5 cm hole in the middle were used to hold the shoots with the help of a cylindrical sponge. NAA solution was obtained from PhytoTechnology Laboratories. Fertilizer was applied from the stock A, B, and C solutions described in Example 1. Three separate 5-liter fertilizer solutions were made by mixing 10 ml each of fertilizer stock solution A, B and C in 4970 ml of tap water. NAA stock solution was added to achieve a final concentration of 10^-8 M, 10^-7 M and 10^-6 M solution, respectively. Soybean shoot cuttings were inserted into the sponge roll, and placed through the lid of the tissue culture box. The shoots in the solutions were placed in a greenhouse with 20 hour light cycles at 27° C. and 4 hour night cycles at 21° C. Data was collected nine days after the shoots were placed in the boxes.
# Soybean shoots = assay: Root development of soybean shoot cuttings in 50 ml tubes with water or fertilizer solution ± NAA; type: in vivo; conditions: NAA at 10^-8 M and 10^-7 M; day 12; FIG. 1B
# Procedure: Soybean shoots 10 to 15 cm long were cut from 2 similar plants and placed in 50 ml plastic tubes. One shoot was placed in each tube. The tubes contain 50 ml solutions according to the following design: The base solution was either water or a 1:200 dilution of fertilizer stock solution A, B and C. Stock A contains 958.6 grams of 21-5-20 All Purpose from Jack's Professional, 133.8 grams of 15-0-15 Dark Weather (Jack's Professional) and 60.0 grams of 10-0-0 Magnitrate Special (Peter's Excel) in 2 liter of water. Stock B contains 239.6 grams of 15-5-25 Poinsettia Peat-Lite Special (Jack's Professional) in 2 liters of water. Stock C contains 60.0 grams of Epsom salt (magnesium sulfate) in 1.0 liter of water. NAA (1-Naphthaleneacetic acid, Sigma-Aldrich) was added to either water or fertilizer solutions to concentrations of 0, 10^-9 M, 10^-8 M and 10^-7 M. There were 2 fertilizer (with or without) treatments×4 NAA treatments, totaling 8 treatments. The experiment was repeated 3 times, making a total of 24 tubes. The shoots in the solutions were placed in a greenhouse with 20 hour light cycles at 28° C. and 4 hour night cycles at 22° C.
compound,measurement,setting,value
"O=C(O)Cc1cccc2ccccc12 [NAA, 1-Naphthaleneacetic acid]",effect of NAA on root length,Soybean shoot cuttings,kept the roots shorter
same,effect of NAA on root number,Soybean shoot cuttings,stimulated more roots from a shoot
same,effect of NAA on root growth (root length),Soybean shoots,positive effects on root growth
